Assay results reported in ChEMBL document CHEMBL6074679, “Diastereoselective synthesis and biological evaluation of new fluorine-containing α-aminophosphonates as anticancer agents and scaffold to human urokinase plasminogen activator inhibitors” (Eur J Med Chem, 2025).

How the values were obtained:
Caco-2 = assay: Cytotoxicity against human Caco-2 cells incubated for 48 hrs by MTT assay; format: functional, cell-based; settings: Caco-2, 48 h
SK-OV-3 = assay: Cytotoxicity against human SK-OV-3 cells incubated for 48 hrs by MTT assay; format: functional, cell-based; settings: SK-OV-3, 48 h
U-251 = assay: Cytotoxicity against human U-251MG cells incubated for 48 hrs by MTT assay; format: functional, cell-based; settings: U-251, 48 h
[1] = Cytotoxicity against human MRC5 cells incubated for 48 hrs by MTT assay; format: toxicity, cell-based
MDA-MB-231 = assay: Cytotoxicity against human MDA-MB-231 cells incubated for 48 hrs by MTT assay; format: functional, cell-based; settings: MDA-MB-231, 48 h
U-87 MG = assay: Cytotoxicity against human U-87 MG cells incubated for 48 hrs by MTT assay; format: functional, cell-based, U-87MG ATCC
HeLa = assay: Cytotoxicity against human HeLa cells incubated for 48 hrs by MTT assay; format: functional, cell-based
U-118-MG = assay: Cytotoxicity against human U-118 MG cells incubated for 48 hrs by MTT assay; format: functional, cell-based
HepG2 = assay: Cytotoxicity against human HepG2 cells incubated for 48 hrs by MTT assay; format: functional, cell-based; settings: HepG2, 48 h
OVCAR-3 = assay: Cytotoxicity against human OVCAR-3 cells incubated for 48 hrs by MTT assay; format: functional, cell-based; settings: OVCAR-3, 48 h
A549 = assay: Cytotoxicity against human A549 cells incubated for 48 hrs by MTT assay; format: functional, cell-based; settings: A549, 48 h
[2] = target: Urokinase-type plasminogen activator (Homo sapiens, UniProt P00749); assay: Inhibition of human urokinase uPA using Z-Gly-Gly-Arg-AMC as substrate by fluorescence plate reader assay

Row | IC50 [2] [µM] | Compound | IC50 (Caco-2) [µM] | IC50 (SK-OV-3) [µM] | IC50 (U-251) [µM] | IC50 at 48 h [1] [µM] | IC50 (MDA-MB-231) [µM] | IC50 (U-87 MG) [µM] | IC50 (HeLa) [µM] | IC50 (U-118-MG) [µM] | IC50 (HepG2) [µM] | IC50 (OVCAR-3) [µM] | IC50 (A549) [µM]
1 |  | COP(=O)(OC)C(N[C@H](C)c1ccccc1)c1c(F)c(F)c(F)c(F)c1F (some centres not stated) | 6.02 | 28.2 | 34.1 | 84.1 | 94.3 | 5.45 | 4.09 | 51.2 | 55.1 | 13 | 49.6
2 | 720 | COP(=O)(OC)C(N[C@@H](C)C(C)(C)C)c1c(F)cc(F)cc1F (some centres not stated) | 72.3 | 7.08 | 144 | 15 | 83 | 61.1 | 4.14 | 122 | 92.1 | 13.7 | 48.6
3 | 671 | CCOP(=O)(OCC)C(N[C@@H](C)C(C)(C)C)c1c(F)cc(F)cc1F (some centres not stated) | 0.39 | 16.6 | 7.57 | 36.5 | 39.3 | 11.5 | 10.6 | 40.7 | 46.7 | 55.1 | 33.3
4 | 114 | COc1ccc([C@@H](C)NC(c2ccccc2F)P(=O)(OC)OC)cc1 (some centres not stated) | 1.3 | 338 | 8.7 | 29.1 | 167 | 9.24 | 5.18 | > 500 | 72.6 | 15.7 | 43.3
5 | 416 | CCOP(=O)(OCC)C(N[C@H](C)c1ccc(OC)cc1)c1c(F)c(F)c(F)c(F)c1F (some centres not stated) | 1.74 | 5.37 | 78.9 | 27.2 | 19.1 | 9.34 | 3.92 | 14.4 | 45.3 | > 500 | 44.6
6 |  | COP(=O)(OC)C(N[C@@H](C)C(C)(C)C)c1ccc(F)cc1F (some centres not stated) | 6.44 | 131 | 119 | 82.2 | 165 | 40.7 | 9.85 | 87.7 | 59.5 | 66.3 | 1.82
7 |  | COP(=O)(OC)C(N[C@@H](C)C(C)(C)C)c1ccccc1F (some centres not stated) | 1.3 | 21.9 | 8.95 | 34.4 | 160 | 3.27 | 21.4 | 81.2 | 59.6 | 51.7 | 55.1
8 | 493 | COc1ccc([C@@H](C)NC(c2ccc(F)cc2)P(=O)(OC(C)C)OC(C)C)cc1 (some centres not stated) | 6.47 | 8.41 | 27 | 5.9 | 33.8 | 21.7 | 3.18 | 18.2 | 7.74 | 44.3 | 37.7
9 | 357 | COc1ccc([C@@H](C)NC(c2c(F)c(F)c(F)c(F)c2F)P(=O)(OC)OC)cc1 (some centres not stated) | 6.93 | 4.36 | 53.1 | 2.17 | 79.2 | 45.1 | 52.4 | 31.4 | 35.5 | 13.7 | 75.1
10 |  | CCOP(=O)(OCC)C(N[C@H](C)c1ccccc1)c1ccc(F)cc1F (some centres not stated) | 2.24 | 3.24 | 5.59 | 16.6 | 11.6 | 7.68 | 4.11 | 34.6 | 117 | 5.56 | 35.4
11 | 516 | COP(=O)(OC)C(N[C@@H](C)C(C)(C)C)c1ccc(F)cc1 (some centres not stated) | 18.5 | 6.77 | 21 | 110 | 190 | 36.3 | 6.07 | 38.3 | 6.73 | 81.6 | 9.82
12 |  | COP(=O)(OC)C(NC(C)C(C)(C)C)c1ccc(F)cc1 (racemic) | 16.1 | 8.75 | 16.5 | 90.7 | 230 | 39.8 | 6.28 | 45.8 | 5.57 | 104 | 7.95
13 |  | CCOP(=O)(OCC)C(N[C@@H](C)C(C)(C)C)c1ccc(F)cc1F (some centres not stated) | 27.4 | 110 | 48.6 | 107 | 5.58 | 10.5 | 4.46 | 35.5 | 18.4 | 48.3 | 18
14 |  | COP(=O)(OC)C(N[C@H](C)c1ccccc1)c1ccc(F)cc1F (some centres not stated) | 8.63 | 17.4 | 110 | 5.24 | 170 | 57 | 5.35 | 67.7 | 47.9 | 2.47 | 5.45
15 | 147 | COc1ccc([C@@H](C)NC(c2ccc(F)cc2F)P(=O)(OC)OC)cc1 (some centres not stated) | 28.5 | 3.71 | 19 | 10.6 | 11 | 9.92 | 2.54 | 183 | 58.5 | 100 | 53.1
16 |  | CCOP(=O)(OCC)C(N[C@@H](C)C(C)(C)C)c1ccc(F)cc1 (some centres not stated) | 51.4 | 15.3 | 24.4 | 13.8 | 59.3 | 11 | 13 | 64.2 | 34.5 | 71.6 | 49.2
17 | 280 | CCOP(=O)(OCC)C(N[C@H](C)c1ccc(OC)cc1)c1ccc(F)cc1F (some centres not stated) | 47.4 | 1.63 | 53.2 | 4.71 | 156 | 59.2 | 32.4 | 43.6 | 7.79 | 0.64 | 21.6
18 | 620 | COc1ccc([C@@H](C)NC(c2ccc(F)cc2F)P(=O)(OC(C)C)OC(C)C)cc1 (some centres not stated) | 0.72 | 9.35 | 3.51 | 1.82 | 80.9 | 3.72 | 5.07 | 67.6 | 46.2 | 3.57 | 2.87
19 |  | COc1ccc([C@@H](C)NC(c2c(F)cc(F)cc2F)P(=O)(OC)OC)cc1 (some centres not stated) | 14.6 | 4.2 | 47.8 | 5.86 | 27 | 22.6 | 17.5 | 70 | 13.2 | 78.6 | 33.2
20 |  | O=c1[nH]c(=O)n([C@H]2C[C@H](O)[C@@H](CO)O2)cc1F [FLOXURIDINE] |  | 12.8 | 17.8 |  | 5.65 | 18.5 |  |  | 37.9 | 24.5 | 22.8
21 |  | CC(C)OP(=O)(OC(C)C)C(N[C@@H](C)C(C)(C)C)c1ccc(F)cc1F (some centres not stated) | 10.5 | 8.63 | 3.97 | 47.8 | 9.89 | 7.78 | 5.37 | 150 | 23.6 | 194 | 72
